Experimental data published in ChEMBL document CHEMBL4325863, “Investigating alkyl nitrates as nitric oxide releasing precursors of multitarget acetylcholinesterase-monoamine oxidase B inhibitors” (Eur J Med Chem, 2019).
The source made the active and inactive calls. The calls are words filed in the database; no cut-off is given here.

Experiments:
[1] = system: SH-SY5Y; assay: Neuroprotection against rotenone/H2O2-induced cell death in human SH-SY5Y cells assessed as increase in cell viability at 0.1 to […] preincubated for 24 hrs followed by rotenone/H2O2 addition measured after 24 hrs by MTT assay; assay type: functional, cell-based
[2] = molecular target: T1, Amine oxidase [flavin-containing] A (Homo sapiens, UniProt P21397); assay: Inhibition of recombinant human MAO-A expressed in baculovirus infected insect cell microsomes at 10 uM using kynuramine as substrate measured after 30 mins by fluorescence based assay relative to control; details: 0.5 h
T1 sequence (P21397 whole entry): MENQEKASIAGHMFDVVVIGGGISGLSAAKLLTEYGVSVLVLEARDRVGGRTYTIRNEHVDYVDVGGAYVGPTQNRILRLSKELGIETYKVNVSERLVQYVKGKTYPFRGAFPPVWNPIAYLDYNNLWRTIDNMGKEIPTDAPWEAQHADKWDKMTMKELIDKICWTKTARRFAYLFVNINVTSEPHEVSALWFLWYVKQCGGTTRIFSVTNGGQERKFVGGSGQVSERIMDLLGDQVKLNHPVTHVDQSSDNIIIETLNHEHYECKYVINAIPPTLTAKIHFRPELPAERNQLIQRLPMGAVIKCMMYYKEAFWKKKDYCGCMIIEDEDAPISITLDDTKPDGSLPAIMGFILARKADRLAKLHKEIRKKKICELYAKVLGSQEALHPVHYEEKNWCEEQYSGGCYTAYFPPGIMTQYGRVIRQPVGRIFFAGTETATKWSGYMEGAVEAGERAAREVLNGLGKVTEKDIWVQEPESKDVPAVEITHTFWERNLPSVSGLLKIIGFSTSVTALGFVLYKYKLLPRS

[3] = molecular target: T2, Amine oxidase [flavin-containing] B (Homo sapiens, UniProt P27338); assay: Inhibition of recombinant human MAO-B expressed in baculovirus infected insect cell microsomes at 10 uM using kynuramine as substrate measured after 30 mins by fluorescence based assay relative to control; details: 0.5 h
T2 sequence (P27338 whole entry): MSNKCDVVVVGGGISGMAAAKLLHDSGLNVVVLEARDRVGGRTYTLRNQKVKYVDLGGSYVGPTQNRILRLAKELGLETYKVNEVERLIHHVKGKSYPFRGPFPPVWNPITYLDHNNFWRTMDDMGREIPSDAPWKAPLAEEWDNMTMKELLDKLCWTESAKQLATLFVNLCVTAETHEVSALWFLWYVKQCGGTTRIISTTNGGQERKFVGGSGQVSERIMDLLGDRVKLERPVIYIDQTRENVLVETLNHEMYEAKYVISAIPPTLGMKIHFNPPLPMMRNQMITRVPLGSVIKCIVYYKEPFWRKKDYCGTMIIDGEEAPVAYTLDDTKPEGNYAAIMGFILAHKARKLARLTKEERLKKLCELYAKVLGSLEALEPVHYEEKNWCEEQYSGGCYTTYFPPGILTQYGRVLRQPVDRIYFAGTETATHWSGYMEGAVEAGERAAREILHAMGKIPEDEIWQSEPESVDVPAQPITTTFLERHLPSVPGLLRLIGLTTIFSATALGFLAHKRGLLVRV

[4] = molecular target: T2, Amine oxidase [flavin-containing] B; assay: Inhibition of recombinant human MAO-B expressed in baculovirus infected insect cell microsomes at 10 uM using kynuramine as substrate measured after 30 mins by spectrophotometric assay relative to control; details: 0.5 h
[5] = molecular target: Acetylcholinesterase (Electrophorus electricus) (UniProt O42275); assay: Inhibition of electric eel AChE at 10 uM using acetylthiocholine iodide as substrate by Ellman's method relative to control
Sequence of Acetylcholinesterase (Electrophorus electricus) (O42275 24-633 limits assumed): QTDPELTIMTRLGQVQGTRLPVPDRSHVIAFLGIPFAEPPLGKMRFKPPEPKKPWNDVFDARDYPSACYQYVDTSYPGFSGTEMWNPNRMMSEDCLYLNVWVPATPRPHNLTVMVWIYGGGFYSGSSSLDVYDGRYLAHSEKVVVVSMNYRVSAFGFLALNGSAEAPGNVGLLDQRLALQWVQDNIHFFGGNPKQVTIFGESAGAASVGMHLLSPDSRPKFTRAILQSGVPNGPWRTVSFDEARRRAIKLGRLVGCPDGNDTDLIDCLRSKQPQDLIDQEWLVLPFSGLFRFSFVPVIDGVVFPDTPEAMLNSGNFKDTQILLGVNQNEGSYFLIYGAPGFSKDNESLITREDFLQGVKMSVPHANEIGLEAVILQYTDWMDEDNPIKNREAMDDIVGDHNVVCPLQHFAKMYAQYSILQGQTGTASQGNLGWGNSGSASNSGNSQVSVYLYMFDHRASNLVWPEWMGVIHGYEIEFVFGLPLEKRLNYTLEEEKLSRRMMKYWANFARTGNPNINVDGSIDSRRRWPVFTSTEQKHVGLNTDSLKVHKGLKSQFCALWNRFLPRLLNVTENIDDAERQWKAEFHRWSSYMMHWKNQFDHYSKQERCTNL

[6] = molecular target: Cholinesterase (Equus caballus) (UniProt P81908); assay: Inhibition of equine serum BuChE at 10 uM using butyrylthiocholine iodide as substrate by Ellman's method relative to control
Sequence of Cholinesterase (Equus caballus) (P81908 whole entry): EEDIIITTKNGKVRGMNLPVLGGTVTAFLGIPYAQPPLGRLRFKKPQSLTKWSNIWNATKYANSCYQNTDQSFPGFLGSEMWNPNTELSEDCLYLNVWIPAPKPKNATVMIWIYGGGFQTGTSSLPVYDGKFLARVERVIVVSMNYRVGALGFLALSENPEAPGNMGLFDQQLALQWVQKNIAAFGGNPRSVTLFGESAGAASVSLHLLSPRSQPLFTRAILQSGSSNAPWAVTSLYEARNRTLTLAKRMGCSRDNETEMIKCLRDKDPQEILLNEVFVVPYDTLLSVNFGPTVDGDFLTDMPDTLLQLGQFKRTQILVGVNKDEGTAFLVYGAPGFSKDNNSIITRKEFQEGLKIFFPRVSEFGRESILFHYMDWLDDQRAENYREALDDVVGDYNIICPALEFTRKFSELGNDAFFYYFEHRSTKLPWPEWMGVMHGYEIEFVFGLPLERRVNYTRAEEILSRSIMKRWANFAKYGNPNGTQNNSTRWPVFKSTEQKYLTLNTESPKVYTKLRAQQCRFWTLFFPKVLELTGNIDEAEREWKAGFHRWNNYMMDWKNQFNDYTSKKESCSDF

[7] = molecular target: T1, Amine oxidase [flavin-containing] A; assay: Inhibition of recombinant human MAO-A expressed in baculovirus infected insect cell microsomes using kynuramine as substrate measured after 30 mins by fluorescence based assay
[8] = molecular target: T2, Amine oxidase [flavin-containing] B; assay: Inhibition of recombinant human MAO-B expressed in baculovirus infected insect cell microsomes using kynuramine as substrate measured after 30 mins by fluorescence based assay
[9] = Drug metabolism in PBS buffer assessed as nitric oxide release at 150 uM in presence of cysteine by Griess reagent based UV-Visible spectrophotometric method; details: TDE = time-dependent effect
[10] = molecular target: Acetylcholinesterase (Homo sapiens, UniProt P22303); assay: Inhibition of human recombinant AChE using acetylthiocholine iodide as substrate by Ellman's method
Sequence of Acetylcholinesterase (P22303 whole entry): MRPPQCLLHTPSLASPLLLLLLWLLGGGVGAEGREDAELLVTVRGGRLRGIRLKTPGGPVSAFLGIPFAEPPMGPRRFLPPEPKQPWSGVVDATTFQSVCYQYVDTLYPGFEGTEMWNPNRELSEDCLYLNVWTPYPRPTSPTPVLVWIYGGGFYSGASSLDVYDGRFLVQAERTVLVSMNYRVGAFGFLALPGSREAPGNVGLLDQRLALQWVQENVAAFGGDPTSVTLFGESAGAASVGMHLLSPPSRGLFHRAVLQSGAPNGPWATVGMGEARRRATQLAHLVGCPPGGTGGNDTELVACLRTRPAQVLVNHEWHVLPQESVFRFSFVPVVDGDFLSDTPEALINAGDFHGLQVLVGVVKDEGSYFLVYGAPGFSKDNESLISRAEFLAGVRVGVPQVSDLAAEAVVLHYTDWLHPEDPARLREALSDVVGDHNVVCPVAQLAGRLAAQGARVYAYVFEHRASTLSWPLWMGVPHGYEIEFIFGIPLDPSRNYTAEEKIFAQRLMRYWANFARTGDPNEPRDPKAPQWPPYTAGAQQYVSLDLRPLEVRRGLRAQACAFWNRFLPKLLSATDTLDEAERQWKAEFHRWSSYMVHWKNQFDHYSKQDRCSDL

[11] = molecular target: Cholinesterase (Homo sapiens, UniProt P06276); assay: Inhibition of human serum BuChE using butyrylthiocholine iodide as substrate by Ellman's method
Sequence of Cholinesterase (P06276 whole entry): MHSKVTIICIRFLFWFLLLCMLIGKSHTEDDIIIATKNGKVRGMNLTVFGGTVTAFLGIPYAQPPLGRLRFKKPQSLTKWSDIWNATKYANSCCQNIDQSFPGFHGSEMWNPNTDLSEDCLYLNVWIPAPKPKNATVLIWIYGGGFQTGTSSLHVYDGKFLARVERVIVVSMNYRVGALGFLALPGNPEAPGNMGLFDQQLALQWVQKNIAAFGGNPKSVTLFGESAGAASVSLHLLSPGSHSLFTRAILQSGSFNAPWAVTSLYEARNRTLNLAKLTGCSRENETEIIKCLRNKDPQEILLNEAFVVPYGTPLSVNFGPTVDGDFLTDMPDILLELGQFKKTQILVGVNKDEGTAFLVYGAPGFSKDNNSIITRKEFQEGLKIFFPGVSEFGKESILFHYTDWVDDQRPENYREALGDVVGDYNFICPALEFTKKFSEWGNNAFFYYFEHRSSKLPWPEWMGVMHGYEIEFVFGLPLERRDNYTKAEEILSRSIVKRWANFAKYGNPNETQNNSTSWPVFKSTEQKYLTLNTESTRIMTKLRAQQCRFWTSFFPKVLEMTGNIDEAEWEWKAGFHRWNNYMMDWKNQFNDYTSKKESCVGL

[12] = Drug metabolism in pH 7.4 PBS buffer assessed as 7-({1-[3-(3-Hydroxypropoxy)benzyl]piperidin-4-yl}methoxy)-3,4-dimethyl-2H-chromen-2-one formation at 100 uM up to 30 hrs by RP-HPLC method
[13] = Half life in human serum at 100 uM by RP-HPLC method; assay type: ADME, cell-free
[14] = Drug metabolism in pH 7.4 PBS buffer assessed as 7-({1-[3-(3-Hydroxypropoxy)benzyl]piperidin-4-yl}methoxy)-3,4-dimethyl-2H-chromen-2-one formation at 100 uM up to 30 hrs in presence of cysteine by RP-HPLC method
[15] = Drug metabolism in pH 7.4 PBS buffer assessed as 7-({1-[3-(3-Hydroxypropoxy)benzyl]piperidin-4-yl}methoxy)-3,4-dimethyl-2H-chromen-2-one formation at 100 uM up to 30 hrs in presence of glutathione by RP-HPLC method
[16] = Drug metabolism in pH 7.4 PBS buffer at 100 uM after 24 hrs in presence of cysteine by RP-HPLC method
[17] = Drug metabolism in pH 7.4 PBS buffer at 100 uM after 24 hrs in presence of glutathione by RP-HPLC method
[18] = Drug metabolism in pH 7.4 PBS buffer at 100 uM after 24 hrs by RP-HPLC method

SMILES: COc1cc2c(cc1OC)C(=O)C(CC1CCN(Cc3ccccc3)CC1)C2 (stereo not drawn)
- Activity [1]: Active

SMILES: O=c1ccc2ccc(OCC3CCN(CCCO)CC3)cc2o1
- inhibition at 10 µM [2]: 26%
- inhibition at 10 µM [3]: 48%
- inhibition at 10 µM [4]: 39%
- inhibition [5]: 38%
- inhibition [6]: 26%

SMILES: Cc1c(C)c2ccc(OCC3CCN(Cc4cccc(OCCCO[N+](=O)[O-])c4)CC3)cc2oc1=O
- IC50 [7]: 1200 nM
- IC50 [8]: 550 nM
- Drug metabolism [9]: Tde
- IC50 [10]: 480 nM
- IC50 [11]: 800 nM
- Drug metabolism [12]: Metabolite detected
- half-life at 100 µM [13]: 19.1 days
- Drug metabolism [14]: Metabolite not detected
- Drug metabolism [15]: Metabolite not detected
- Drug metabolism [16]: > 50%
- Drug metabolism [17]: > 50%
- Drug metabolism [18]: > 50%
